Data as given in US11053204B2, “Pyrimidinyloxy benzene derivatives as herbicides” (FMC Corporation, priority 2015, dated 2021).

Assays:
Type in all cases: in vivo
[1] = system: Italian ryegrass (Lolium multiflorum); test: Test A preemergence, visual injury rating
Outline: (§1)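 Visual 0–100 rating (100 = complete control) taken about 10 d post-treatment relative to untreated checks. Preemergence: directed soil spray on sown loam/sand pots. Postemergence: seedlings 2–10 cm, 1–2 leaf. Non-phytotoxic solvent formulation with surfactant.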

[2] = system: barnyardgrass (Echinochloa crus-galli); test: Test A preemergence, visual injury rating
Outline: as §1

[3] = system: giant foxtail (Setaria faberii); test: Test A preemergence, visual injury rating
Outline: as §1

kochia (Kochia scoparia) [4] = test: Test A preemergence, visual injury rating
Outline: as §1

[5] = system: pigweed (Amaranthus retroflexus); test: Test A preemergence, visual injury rating
Outline: as §1

[6] = system: ragweed (common ragweed, Ambrosia elatior); test: Test A preemergence, visual injury rating
Outline: as §1

[7] = system: Italian ryegrass (Lolium multiflorum); test: Test A postemergence, visual injury rating; settings: 0 to 100 scale, 0 is no effect, 100 is complete control, approximately 10 days
Outline: as §1

[8] = system: barnyardgrass (Echinochloa crus-galli); test: Test A postemergence, visual injury rating; settings: 0 to 100 scale, 0 is no effect, 100 is complete control, approximately 10 days
Outline: as §1

[9] = system: blackgrass (Alopecurus myosuroides); test: Test A postemergence, visual injury rating; settings: 0 to 100 scale, 0 is no effect, 100 is complete control, approximately 10 days
Outline: as §1

corn (Zea mays) = test: Test A postemergence, visual injury rating; settings: 0 to 100 scale, 0 is no effect, 100 is complete control, approximately 10 days
Outline: as §1

[10] = system: galium (catchweed bedstraw, Galium aparine); test: Test A postemergence, visual injury rating; settings: 0 to 100 scale, 0 is no effect, 100 is complete control, approximately 10 days
Outline: as §1

[11] = system: giant foxtail (Setaria faberii); test: Test A postemergence, visual injury rating; settings: 0 to 100 scale, 0 is no effect, 100 is complete control, approximately 10 days
Outline: as §1

kochia (Kochia scoparia) [12] = test: Test A postemergence, visual injury rating; settings: 0 to 100 scale, 0 is no effect, 100 is complete control, approximately 10 days
Outline: as §1

[13] = system: pigweed (Amaranthus retroflexus); test: Test A postemergence, visual injury rating; settings: 0 to 100 scale, 0 is no effect, 100 is complete control, approximately 10 days
Outline: as §1

[14] = system: ragweed (common ragweed, Ambrosia elatior); test: Test A postemergence, visual injury rating; settings: 0 to 100 scale, 0 is no effect, 100 is complete control, approximately 10 days
Outline: as §1

[15] = system: wheat (Triticum aestivum); test: Test A postemergence, visual injury rating; settings: 0 to 100 scale, 0 is no effect, 100 is complete control, approximately 10 days
Outline: as §1

[16] = system: barnyardgrass (Echinochloa crus-galli); test: Test B flooded paddy test, plant response rating; settings: 250 g ai/ha; Flood; scale of 0 to 100 where 0 is no effect and 100 is complete control; 13 to 15 days
Outline: (§2)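 Pots were flooded to 3 cm above the soil surface at treatment, compound applied directly to the paddy water, and that depth held throughout. Plants were kept in a greenhouse for 13 to 15 days, then visually rated against untreated controls.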

[17] = system: ducksalad (Heteranthera limosa); test: Test B flooded paddy test, plant response rating; settings: 250 g ai/ha; Flood; scale of 0 to 100 where 0 is no effect and 100 is complete control; 13 to 15 days
Outline: as §2

rice (Oryza sativa) = test: Test B flooded paddy test, plant response rating; settings: 250 g ai/ha; Flood; scale of 0 to 100 where 0 is no effect and 100 is complete control; 13 to 15 days
Outline: as §2

[18] = system: sedge, umbrella (small-flower umbrella sedge, Cyperus difformis); test: Test B flooded paddy test, plant response rating; settings: 250 g ai/ha; Flood; scale of 0 to 100 where 0 is no effect and 100 is complete control; 13 to 15 days
Outline: as §2

[19] = 31 g ai/ha, 0 to 100 scale, 0 no effect, 100 complete control
[20] = 125 g ai/ha, 0 to 100 scale (0 no effect, 100 complete control)

Compound | Plant response rating, Ryegrass, Italian [1, 19] | Plant response rating, Ryegrass, Italian [1, 20] | Plant response rating, Barnyardgrass [2, 19] | Plant response rating, Barnyardgrass [2, 20] | Plant response rating, Foxtail, Giant [3, 19] | Plant response rating, Foxtail, Giant [3, 20] | Plant response rating, Kochia (kochia (Kochia scoparia) [4]; [19]) | Plant response rating, Kochia (kochia (Kochia scoparia) [4]; [20]) | Plant response rating, Pigweed [5, 19] | Plant response rating, Pigweed [5, 20] | Plant response rating, Ragweed [6, 19] | Plant response rating, Ragweed [6, 20] | Ryegrass, Italian plant response rating ([7]; 31 g ai/ha) | Ryegrass, Italian plant response rating ([7]; 125 g ai/ha) | Barnyardgrass plant response rating ([8]; 31 g ai/ha) | Barnyardgrass plant response rating ([8]; 125 g ai/ha) | Blackgrass plant response rating ([9]; 31 g ai/ha) | Blackgrass plant response rating ([9]; 125 g ai/ha) | Corn plant response rating (corn (Zea mays); 31 g ai/ha) | Corn plant response rating (corn (Zea mays); 125 g ai/ha) | other results
CCOc1cccc(Oc2ncc(Cl)cn2)c1C(=O)OCCC(F)(F)F [Compound 116] | 0 | 0 | 0 | 0 | 0 | 30 | 0 | 0 | 50 | 70 | 30 | 0 | 0 | 0 | 0 | 10 | 0 | 0 | 0 | 10 | Galium plant response rating ([10]; 31 g ai/ha): 30; Galium plant response rating ([10]; 125 g ai/ha): 60; Foxtail, Giant plant response rating ([11]; 31 g ai/ha): 0; Foxtail, Giant plant response rating ([11]; 125 g ai/ha): 20; Kochia plant response rating (kochia (Kochia scoparia) [12]; 31 g ai/ha): 0; Kochia plant response rating (kochia (Kochia scoparia) [12]; 125 g ai/ha): 10; Pigweed plant response rating ([13]; 31 g ai/ha): 40; Pigweed plant response rating ([13]; 125 g ai/ha): 50; Ragweed plant response rating ([14]; 31 g ai/ha): 0; Ragweed plant response rating ([14]; 125 g ai/ha): 0; Wheat plant response rating ([15]; 31 g ai/ha): 0; Wheat plant response rating ([15]; 125 g ai/ha): 0; Plant response rating, Barnyardgrass [16]: 30; Plant response rating, Ducksalad [17]: 75; Plant response rating, Rice (rice (Oryza sativa)): 70; Plant response rating, Sedge, Umbrella [18]: 90
O=C(OCCC(F)(F)F)c1c(OCC(F)(F)F)cccc1Oc1ncc(Cl)cn1 [Compound 117] | 0 | 0 | 0 | 0 | 0 | 20 | 0 | 0 | 0 | 30 | 0 | 0 | 0 | 0 | 0 | 10 | 0 | 10 | 10 | 10 | Galium plant response rating ([10]; 31 g ai/ha): 60; Galium plant response rating ([10]; 125 g ai/ha): 100; Foxtail, Giant plant response rating ([11]; 31 g ai/ha): 0; Foxtail, Giant plant response rating ([11]; 125 g ai/ha): 10; Kochia plant response rating (kochia (Kochia scoparia) [12]; 31 g ai/ha): 20; Kochia plant response rating (kochia (Kochia scoparia) [12]; 125 g ai/ha): 50; Pigweed plant response rating ([13]; 31 g ai/ha): 30; Pigweed plant response rating ([13]; 125 g ai/ha): 70; Ragweed plant response rating ([14]; 31 g ai/ha): 0; Ragweed plant response rating ([14]; 125 g ai/ha): 20; Wheat plant response rating ([15]; 31 g ai/ha): 0; Wheat plant response rating ([15]; 125 g ai/ha): 0; Plant response rating, Barnyardgrass [16]: 0; Plant response rating, Ducksalad [17]: 20; Plant response rating, Rice (rice (Oryza sativa)): 0; Plant response rating, Sedge, Umbrella [18]: 60
CCCC(C#N)c1c(Br)cccc1Oc1ncc(Cl)cn1 (stereo not drawn) [Compound 118] | 0 | 0 | 0 | 0 | 0 | 20 | 0 | 0 | 20 | 50 | 100 | 50 | 0 | 0 | 0 | 10 | 0 | 0 | 0 | 10 | Galium plant response rating ([10]; 31 g ai/ha): 10; Galium plant response rating ([10]; 125 g ai/ha): 30; Foxtail, Giant plant response rating ([11]; 31 g ai/ha): 0; Foxtail, Giant plant response rating ([11]; 125 g ai/ha): 10; Kochia plant response rating (kochia (Kochia scoparia) [12]; 31 g ai/ha): 30; Kochia plant response rating (kochia (Kochia scoparia) [12]; 125 g ai/ha): 60; Pigweed plant response rating ([13]; 31 g ai/ha): 40; Pigweed plant response rating ([13]; 125 g ai/ha): 60; Ragweed plant response rating ([14]; 31 g ai/ha): 0; Ragweed plant response rating ([14]; 125 g ai/ha): 10; Wheat plant response rating ([15]; 31 g ai/ha): 0; Wheat plant response rating ([15]; 125 g ai/ha): 0; Plant response rating, Barnyardgrass [16]: 0; Plant response rating, Ducksalad [17]: 0; Plant response rating, Rice (rice (Oryza sativa)): 0; Plant response rating, Sedge, Umbrella [18]: 50
FC(F)(F)CCCCCc1c(Br)cccc1Oc1ncc(Cl)cn1 [Compound 121] | 10 | 0 | 0 | 30 | 30 | 100 | 20 | 0 | 0 | 0 | 0 | 0 | 10 | 20 | 20 | 40 | 20 | 30 | 10 | 10 | Galium plant response rating ([10]; 31 g ai/ha): 70; Galium plant response rating ([10]; 125 g ai/ha): 80; Foxtail, Giant plant response rating ([11]; 31 g ai/ha): 10; Foxtail, Giant plant response rating ([11]; 125 g ai/ha): 70; Kochia plant response rating (kochia (Kochia scoparia) [12]; 31 g ai/ha): 20; Kochia plant response rating (kochia (Kochia scoparia) [12]; 125 g ai/ha): 80; Pigweed plant response rating ([13]; 31 g ai/ha): 80; Pigweed plant response rating ([13]; 125 g ai/ha): 100; Ragweed plant response rating ([14]; 31 g ai/ha): 20; Ragweed plant response rating ([14]; 125 g ai/ha): 50; Wheat plant response rating ([15]; 31 g ai/ha): 10; Wheat plant response rating ([15]; 125 g ai/ha): 10; Plant response rating, Barnyardgrass [16]: 50; Plant response rating, Ducksalad [17]: 0; Plant response rating, Rice (rice (Oryza sativa)): 35; Plant response rating, Sedge, Umbrella [18]: 70
FC(F)(F)CCCc1c(Cl)cccc1Oc1ncc(Cl)cn1 [Compound 122] | 0 | 30 | 30 | 90 | 0 | 40 | 10 | 70 | 40 | 90 | 0 | 0 | 0 | 20 | 10 | 50 | 20 | 60 | 10 | 20 | Galium plant response rating ([10]; 31 g ai/ha): 30; Galium plant response rating ([10]; 125 g ai/ha): 60; Foxtail, Giant plant response rating ([11]; 31 g ai/ha): 10; Foxtail, Giant plant response rating ([11]; 125 g ai/ha): 40; Kochia plant response rating (kochia (Kochia scoparia) [12]; 31 g ai/ha): 80; Kochia plant response rating (kochia (Kochia scoparia) [12]; 125 g ai/ha): 80; Pigweed plant response rating ([13]; 31 g ai/ha): 70; Pigweed plant response rating ([13]; 125 g ai/ha): 100; Ragweed plant response rating ([14]; 31 g ai/ha): 0; Ragweed plant response rating ([14]; 125 g ai/ha): 10; Wheat plant response rating ([15]; 31 g ai/ha): 0; Wheat plant response rating ([15]; 125 g ai/ha): 0; Plant response rating, Barnyardgrass [16]: 80; Plant response rating, Ducksalad [17]: 100; Plant response rating, Rice (rice (Oryza sativa)): 40; Plant response rating, Sedge, Umbrella [18]: 100
